# Source: article PMC6670186, “Novel prodrugs of decitabine with greater metabolic stability and less toxicity” (Clinical Epigenetics, 2019)
# Entries after “also recorded” stand apart in the source; their conditions may differ. Read-outs that look alike come from different tables or passages of the source. Marks after values point to notes of the source that are not given here.
# How the values were obtained:
# [1] = test system: exogenous UCHL1 promoter and OSR2 promoter CpG island; assay: Quantitative methylation-specific PCR of marker genes; type: cell-based, Human; details: qMSP; for DNA demethylation after pulse exposure: HML58-3 cells, 1.0 μM for 1 h; for DNA demethylation of exogenous UCHL1 promoter and OSR2 promoter CpG island: 0.0 to 10.0 μM
# Description: One microgram of EcoRV-digested genomic DNA was treated with sodium bisulfite as described previously. Bisulfite-treated DNA was resuspended in 40 μL of TE-buffer (10 mM Tris, pH 8.0; 1 mM EDTA, pH 8.0), and 1 μL was used for quantitative methylation-specific PCR (qMSP) using primers specific to methylated and unmethylated target loci, including MetLuc-UCHL1 promoter, OSR2 promoter, and UCHL1 promoter (Additional file 1: Table S1). As a fully unmethylated DNA control, genomic DNA from peripheral blood cells of a healthy person was amplified twice using a GenomiPhi DNA amplification kit (GE Healthcare Life Sciences; Little Chalfont, UK). As a fully methylated DNA control, the fully unmethylated DNA was methylated by SssI methylase (New England Biolabs; Beverly, MA).
# [2] = Adverse effects in xenograft-bearing nude mice (body weight, blood count, biochemical tests); type: in vivo; details: for WBC count and liver function: doses equimolar to that of DAC
# Description: (§1) HCT116 cells (5.0 × 10^6 cells per mouse) were subcutaneously injected into the inguinal region of 6-week-old female nude mice (n = 81) (BALB/c-nu/nu; CLEA Japan, Tokyo, Japan). Once tumors reached an average volume of 80 mm^3, mice bearing xenograft tumors were randomly divided into nine groups and treated intraperitoneally with vehicle (5% DMSO in 10% 2-hydroxypropyl-β-cyclodextrin solution), DAC, OR-2003, or OR-2100. The length and width of tumors were measured with standard calipers twice per week, and tumor volumes were calculated using the formula tumor volume = (length × width^2) × 0.5. Body weight was measured twice per week. […] The remaining mice were categorized as group 1 and continuously treated with drugs. At 29 days after the treatment, tumors, major organs, bone marrow, and blood serum were collected from six mice and blood count and biochemical tests were performed. The mice were maintained under standard conditions according to the institutional guidelines for animal care.
# [3] = test system: TMK1 cells; assay: Cell viability (WST-8), TMK1; type: cell-based
# Description: (§2) Cells were seeded at a density of 1 × 10^3 to 5 × 10^3 cells/well in a 96-well microplate or 1 × 10^4 to 5 × 10^4 cells/well in a six-well microplate on day 0 in triplicate, followed by treatment with drugs on day 1. The cell growth of HCT116 was estimated using IncuCyte (Essen BioScience, K.K.; Tokyo, Japan) for 94 h. The cell viability of SW480, HT29, and TMK1 was evaluated using a WST-8 [2-(2-methoxy-4-nitrophenyl)-3-(4-nitrophenyl)-5-(2, 4-disulfophenyl)-2H tetrazolium, monosodium salt] assay (Nacalai Tesque Inc., Kyoto, Japan). The numbers of cells of RKO, breast cancer cell lines, sarcoma cell lines, and neuroblastoma cell lines were counted using a microscope. The half-maximum inhibitory concentration (IC50) was obtained using the non-linear regression analysis of log (inhibitor) versus the normalized response with a variable slope using the GraphPad Prism software (GraphPad Software; La Jolla, CA).
# [4] = test system: DNMT1; assay: DNMT1 western blot; type: cell-based, Human; details: HML58-3 cells
# Description: Cells were seeded at a density of 3 × 10^5 cells/10-cm dish and treated with appropriate drug(s) 24 h after the initial seeding. On day 5, the cells were lysed in RIPA buffer (20 mM Tris-HCl, pH 7.6; 150 mM NaCl; 1 mM EDTA; 0.1% SDS; and 1% NP-40) containing 3 mM dithiothreitol, proteinase inhibitor cocktail (Nacalai Tesque; Kyoto, Japan). Proteins were resolved by SDS-PAGE and transferred to an Immobilon-P […] membrane (Merck Millipore; Billerica, MA). After blocking, each membrane was incubated with rabbit anti-DNMT1 antibody (Abcam, 1:1000) or mouse anti-PARP antibody (BD, 1:1000). Following three cycles of 10-min washes with PBS supplemented with 0.5% Tween 20 (PBS-T), blots were incubated with secondary antibodies (rabbit IgG, 1:1000; mouse IgG, 1:10000) and rewashed. Chemiluminescence was detected using an ECL kit (Biological Industries).
# [5] = test system: HCT116 cells; assay: Cell growth inhibition, HCT116; type: cell-based, Human
# Description: as §2
# [6] = Pharmacokinetics in mice, intraperitoneal; type: in vivo; details: for AUC 0 → lim, Total: OR compound + metabolite DAC; for AUC 0 → lim, OR compound: dose equimolar to 0.20 mg/kg DAC
# Description: Six-week-old female ICR mice were intraperitoneally injected with 0.20 mg/kg of DAC, 0.29 mg/kg of OR-2003, 0.32 mg/kg of OR-2009, 0.30 mg/kg of OR-2100, and 0.31 mg/kg of OR-2102. The doses were decided so that equivalent amounts of molar concentration would be administered. The blood plasma was collected before and at 5, 15, 30, 45, 60, 90, and 120 min after the treatment. All experimental procedures were approved by the Committee of National Cancer Center.
# [7] = design: method as in Yoo C.B. et al. Cancer Research 2007; 67:6400–6408; details: ref Yoo C.B. et al. Cancer Research 2007, 67:6400–6408; cited from earlier work
# [8] = test system: RKO cells; assay: Cell growth inhibition, RKO; type: cell-based, Human
# Description: as §2
# [9] = biological target: T1, human recombinant cytidine deaminase (Homo sapiens, UniProt P32320); assay: Stability in the presence of cytidine deaminase; type: in vitro ADME
# T1 construct: His; purchased AT Gen Co. Ltd; Seoul, Korea
# T1 sequence (P32320 whole entry): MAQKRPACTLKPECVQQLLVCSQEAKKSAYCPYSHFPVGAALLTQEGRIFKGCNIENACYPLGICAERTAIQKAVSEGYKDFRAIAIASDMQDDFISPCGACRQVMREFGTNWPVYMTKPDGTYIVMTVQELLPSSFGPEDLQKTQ
# Source text: The remaining of the starting derivatives were continuously assayed using HPLC analytical conditions as described above.
# [10] = test system: HCT116 xenografts; assay: Xenograft tumor formation assay in nude mice; type: in vivo; details: for tumor growth (tumor volume): intraperitoneal, twice per week; for DNA demethylation of two promoters in xenograft tumors: group 2 mice
# Description: as §1
# [11] = test system: HML58-3; assay: Expression microarray; type: cell-based, Human; details: 1 μM, 58,341 probes
# Description: Cy3-labeled cRNA was synthesized from 100 ng of total RNA using a Low Input Quick Amp Labeling Kit, One-Color (Agilent Technologies, Santa Clara, CA), and 600 ng of labeled cRNA was fragmented and hybridized to SurePrint G3 Human Gene Expression 8 x 60K v3 Microarray (Agilent Technologies). The hybridized microarray was scanned with an Agilent G2600D microarray scanner (Agilent Technologies). The scanned data were processed using Feature Extraction software (Agilent Technologies) and analyzed using GeneSpring software (Agilent Technologies). The 75th percentile of the signal intensity of all probes was normalized to be 0, and the genes with signal intensities of − 1 or more were regarded as showing positive expression.
# [12] = test system: SFRP1 and UCHL1; assay: RT-qPCR of tumor-suppressor genes after pulse exposure; type: cell-based, Human; details: HML58-3 cells, 1.0 μM for 1 h
# Description: Complementary DNA (cDNA) was synthesized from DNase-treated total RNA (1 μg) using oligo-(dT) 20 (Thermo Fisher Scientific; Waltham, MA) and SuperScript IV Reverse Transcriptase (Thermo Fisher Scientific). The number of cDNA molecules was quantified using qRT-PCR. The primer sequences and PCR conditions are shown in Additional file 1: Table S1. The copy number of each sample was calculated by comparing the amplification curve with those of standard DNA samples with known copy number. The number of target cDNA molecules was normalized to that of GAPDH cDNA molecules.
# [13] = Partition coefficient (log P), shake-flask method, n-octanol/PBS; type: physicochemical
# Description: The method employed HPLC with the following conditions: ZORBAX Bonus C18 column (4.6 × 150 mm, 3 μm); eluent: A = 10 mM HCO2NH4, B = acetonitrile, A:B = 50:50 (an isocratic mode for 5 min), and A:B = 99:1–20:80 (a gradient mode for 15 min); flow rate = 1.0 mL/min; oven temperature = 40 °C; detection = 240 nm.
# [14] = test system: HML58-3 cells; assay: Genome-wide DNA methylation analysis (Infinium MethylationEPIC); type: cell-based, Human; details: 1 μM
# Description: Genome-wide DNA methylation analysis was performed using an Infinium Human MethylationEPIC BeadChip (Infinium EPIC; Illumina; Sam Diego, CA) as described previously. The BeadArray assessed the degree of methylation of 862,927 CpG probes as beta-values that ranged from 0 (unmethylated) to 1 (fully methylated). To reduce the data size and obtain data that were easy to handle, the CpG probes were grouped into 548,546 genomic blocks (GBs), which consisted of probes within 500 bp.
# [15] = Stability in phosphate-buffered saline; type: physicochemical; details: for Stability t1/2 in PBS: PBS 37 °C, 20** + x h, 20 h = t1/2 in PBS of DAC, x = OR compound; for t1/2 in PBS: PBS solution at 37°C
# Description: Five microliters of DAC derivatives (1.0 mg/100 μL of DMSO) was added to 200 μL of a stirred PBS solution at 37 °C. The mixture was stirred continuously for 1 day. The remaining of the starting derivatives was assayed using the HPLC analytical conditions as described above.
# [16] = test system: HML58-3 cells; assay: Luciferase reporter assay for DNA demethylation; type: cell-based, Human; details: 0.1 and 1.0 μM for 1 h, analyzed on day 5
# Description: Cells were seeded at a density of 5 × 10^3 cells/well in a 96-well microplate on day 0 in triplicate, and 5 × 10^4 cells/well in a six-well plate on day 0. On day 1, the medium was replaced with a medium containing a specific concentration of a drug, which was freshly dissolved in DMSO and filtered through a 0.2-μ filter. On day 5, the supernatant from each well of the 96-well microplate was collected to measure luminescence. Luminescence was measured using the Ready-To-Glow^TM Secreted Luciferase Reporter Assay (Clontech; Mountain View, CA) and a multimode plate reader ARVO^TMMX (PerkinElmer Japan Co Ltd.; Kanagawa, Japan).
# [17] = plasma, DAC (metabolite for OR compounds), equimolar dose
Log PO/PBS [13],IC50 [5] [nM],total AUC of OR compound and metabolite DAC compared with DAC [6],"AUC 0 → lim, DAC [6, 17] [µM·h]","AUC 0 → lim, Total ([6]; plasma) [µM·h]","AUC 0 → lim, OR compound ([6]; plasma) [µM·h]",half-life (time to release DAC) [15] [h],Stability t1/2 in PBS [15],t1/2 in PBS [15] [h],SMILES,tumor growth (tumor volume) [10],number of genes upregulated more than twofold and to − 1.0 log2 value [11],DNA demethylation after pulse exposure [1],DNA demethylation of exogenous UCHL1 promoter and OSR2 promoter CpG island [1],WBC count and liver function [2],IC50 [3] [nM],genome-wide DNA demethylation [14],IC50 [8] [nM],DNA demethylation of two promoters in xenograft tumors [10],also measured
–,–,–,–,–,–,–,–,–,"Nc1ncn([C@H]2C[C@H](O)[C@@H](CO)O2)c(=O)n1 [DAC, 2′-deoxy-5-azacytidine, reference compound]",suppressed the xenograft growth,2011,–,–,–,–,–,–,–,"dose with strongest effect of DNA demethylation [1]: 1.0 µM; body weight ([2]; 7.50 and 3.75 mg/kg, initial experiment): severe body weight loss; WBC count and liver function (AST, ALT) ([2]; even at a lower dose (0.625 and 1.250 mg/kg)): affected; IC50 ([3]; Homo sapiens, TMK-1): 5830 nM; DNMT1 protein level [4]: depleted at 3 and 10 μM; IC50 ([5]; Homo sapiens, HCT-116): 850 nM; AUC ([6]; female, ICR, mouse, ip, 0.2 mg/kg, plasma, DAC (metabolite for OR compounds), equimolar dose, read-out: AUC 0 → lim, DAC): 0.378 µM·h; Stability t1/2 in PBS [7]: 20 h; IC50 ([8]; Homo sapiens): 0.2 nM; Enzymatic stability ([9]; cytidine deaminase, after 0.5 h): completely degraded; also recorded: Complete degradation after 0.5 h"
1.64,910,larger AUCs than that of DAC,0.338,0.643,0.305,1,20** + 1 h,1.0,CCC[Si](C)(C)OC[C@H]1O[C@@H](n2cnc(N)nc2=O)C[C@@H]1O [OR-2003],significant and dose-dependent inhibition of tumor growth,2060,stronger demethylation,as strongly as DAC,no influence,2840,as strong DNA demethylation as DAC,40,significant demethylation,expression level of SFRP1 and UCHL1 after pulse exposure [12]: twice as high as that induced by DAC; WBC count ([2]; highest dose 3.600 mg/kg): affected the WBC count; Cmax ([6]; comparison among four OR compounds): highest Cmax; enzymatic stability in the presence of CDA [9]: stable in the presence of CDA; tumor growth inhibition ([10]; highest dose 3.600 mg/kg): strongest effect
2.14,1110,larger AUCs than that of DAC,0.266,0.434,0.168,≥ 14,20** + 16 h,16,CC[Si](CC)(CC)OC[C@H]1O[C@@H](n2cnc(N)nc2=O)C[C@@H]1O [OR-2100],significant and dose-dependent inhibition of tumor growth,2041,stronger demethylation,slightly lower demethylation,no influence,1410,as strong DNA demethylation as DAC,60,significant demethylation,luciferase activity after pulse exposure [16]: weaker than that of DAC; adverse effects ([2]; high dose): no adverse effects
